Measured values: the supplement of paper PMC8612539
Values after ≈ are worked out from the molar mass of the structure shown.

System: Escherichia coli
Assay: minimum inhibitory concentration (MIC)
Procedure: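 Broth microdilution MIC (Sensititre BOPO7F bovine plate, CLSI methods) of 19 antimicrobials against field isolates of P. multocida, M. haemolytica, H. somni (deep nasopharyngeal swabs) and E. coli, Enterococcus spp. (rectal swabs) from weaned dairy heifers. Incubation 16-24 h at 35 C. MIC is the lowest concentration preventing visible growth. Values with <= or > lie at the tested range limits. Trimethoprim-sulfamethoxazole is given as the trimethoprim component of a 1:19 mixture.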

CC1(C)S[C@@H]2[C@H](NC(=O)Cc3ccccc3)C(=O)N2[C@H]1C(=O)O [Penicillin]
Conditions | minimum inhibitory concentration [µg/mL]
isolate (source animal id): 8 | > 8
isolate (source animal id): 9 | > 8
isolate (source animal id): 10 | > 8
isolate (source animal id): 11 | > 8
isolate (source animal id): 12 | > 8
isolate (source animal id): 13 | > 8
isolate (source animal id): 14 | > 8
isolate (source animal id): 15 | > 8
isolate (source animal id): 16 | > 8
isolate (source animal id): 98 | > 8
isolate (source animal id): 99 | > 8
isolate (source animal id): 100 | > 8
isolate (source animal id): 101 | 4 (≈ 12 µM)
isolate (source animal id): 102 | > 8
isolate (source animal id): 103 | > 8
isolate (source animal id): 104 | > 8
isolate (source animal id): 105 | > 8
isolate (source animal id): 106 | > 8
isolate (source animal id): 107 | > 8
isolate (source animal id): 108 | > 8
isolate (source animal id): 109 | > 8
isolate (source animal id): 110 | > 8
isolate (source animal id): 111 | > 8
isolate (source animal id): 112 | > 8
isolate (source animal id): 113 | > 8
isolate (source animal id): 114 | > 8
isolate (source animal id): 115 | > 8
isolate (source animal id): 116 | > 8
isolate (source animal id): 117 | > 8
isolate (source animal id): 118 | > 8
isolate (source animal id): 119 | > 8
isolate (source animal id): 120 | > 8
isolate (source animal id): 121 | > 8
isolate (source animal id): 122 | 8 (≈ 23.9 µM)
isolate (source animal id): 123 | > 8
isolate (source animal id): 124 | > 8
isolate (source animal id): 125 | > 8
isolate (source animal id): 126 | > 8
isolate (source animal id): 127 | > 8
isolate (source animal id): 128 | > 8
isolate (source animal id): 129 | > 8
isolate (source animal id): 130 | > 8
isolate (source animal id): 131 | > 8
isolate (source animal id): 132 | > 8
isolate (source animal id): 133 | > 8
isolate (source animal id): 134 | > 8
isolate (source animal id): 135 | > 8
isolate (source animal id): 136 | > 8
isolate (source animal id): 137 | > 8
isolate (source animal id): 138 | > 8
isolate (source animal id): 139 | 8 (≈ 23.9 µM)
isolate (source animal id): 140 | > 8
isolate (source animal id): 141 | > 8
isolate (source animal id): 142 | > 8
isolate (source animal id): 143 | > 8
isolate (source animal id): 144 | > 8
isolate (source animal id): 145 | > 8
isolate (source animal id): 146 | > 8
isolate (source animal id): 147 | > 8
isolate (source animal id): 148 | > 8
isolate (source animal id): 149 | > 8
isolate (source animal id): 150 | > 8
isolate (source animal id): 151 | 8 (≈ 23.9 µM)
isolate (source animal id): 152 | > 8
isolate (source animal id): 153 | > 8
isolate (source animal id): 154 | > 8
isolate (source animal id): 155 | > 8
isolate (source animal id): 156 | > 8
isolate (source animal id): 157 | > 8
isolate (source animal id): 158 | > 8
isolate (source animal id): 159 | > 8
isolate (source animal id): 160 | > 8
isolate (source animal id): 161 | > 8
isolate (source animal id): 162 | > 8
isolate (source animal id): 163 | > 8
isolate (source animal id): 164 | > 8
isolate (source animal id): 165 | > 8
isolate (source animal id): 166 | > 8
isolate (source animal id): 167 | > 8
isolate (source animal id): 168 | > 8
isolate (source animal id): 169 | > 8
isolate (source animal id): 170 | > 8
isolate (source animal id): 171 | > 8
isolate (source animal id): 172 | > 8
isolate (source animal id): 173 | > 8
isolate (source animal id): 174 | > 8
isolate (source animal id): 175 | > 8
isolate (source animal id): 176 | > 8
isolate (source animal id): 177 | > 8
isolate (source animal id): 178 | > 8
isolate (source animal id): 179 | > 8
isolate (source animal id): 180 | > 8
isolate (source animal id): 181 | > 8
isolate (source animal id): 182 | > 8
isolate (source animal id): 183 | > 8
isolate (source animal id): 184 | > 8
isolate (source animal id): 185 | > 8
isolate (source animal id): 186 | > 8
isolate (source animal id): 187 | > 8
isolate (source animal id): 188 | > 8
